Experimental data as given in ChEMBL document CHEMBL1909046, “DrugMatrix in vitro pharmacology data”.

target: T1, Estrogen receptor (Homo sapiens, UniProt P03372); settings: sf9; further: in other assays of this panel Not Active means under 50% inhibition at 10 µM
T1 sequence (P03372 whole entry): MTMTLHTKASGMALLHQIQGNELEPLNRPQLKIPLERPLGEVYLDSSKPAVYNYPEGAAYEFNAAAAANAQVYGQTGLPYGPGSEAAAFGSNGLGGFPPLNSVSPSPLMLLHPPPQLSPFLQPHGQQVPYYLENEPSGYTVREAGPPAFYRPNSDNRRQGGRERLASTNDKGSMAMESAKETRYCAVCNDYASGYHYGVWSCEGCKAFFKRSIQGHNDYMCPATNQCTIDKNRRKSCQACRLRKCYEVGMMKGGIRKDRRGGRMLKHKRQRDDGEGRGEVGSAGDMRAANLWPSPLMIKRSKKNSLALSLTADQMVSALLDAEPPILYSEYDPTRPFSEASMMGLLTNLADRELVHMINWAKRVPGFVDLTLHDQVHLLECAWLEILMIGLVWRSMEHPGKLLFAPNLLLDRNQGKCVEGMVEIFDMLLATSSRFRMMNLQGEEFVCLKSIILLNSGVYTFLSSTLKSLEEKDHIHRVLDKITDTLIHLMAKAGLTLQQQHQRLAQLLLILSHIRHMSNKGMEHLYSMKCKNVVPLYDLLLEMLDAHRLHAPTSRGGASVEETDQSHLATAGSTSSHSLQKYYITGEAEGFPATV

SMILES	IC50
CCOC(=O)C1=C(C)NC(C)=C(C(=O)OC)C1c1cccc(Cl)c1Cl (centres undefined) [FELODIPINE]	Not Active
Cc1cn[nH]c1 [FOMEPIZOLE]	Not Active
Cc1cnc(C(=O)NCCc2ccc(S(=O)(=O)NC(=O)NC3CCCCC3)cc2)cn1 [GLIPIZIDE]	Not Active
C/C=C\c1ccc(O)c(OC)c1 [ISOEUGENOL]	Not Active
CC[C@H](C)C(=O)O[C@H]1C[C@@H](C)C=C2C=C[C@H](C)[C@H](CC[C@@H]3C[C@@H](O)CC(=O)O3)[C@H]21 [LOVASTATIN]	Not Active
OCCN1CCN(CCCN2c3ccccc3Sc3ccc(Cl)cc32)CC1 [PERPHENAZINE]	Not Active

target: T2, Substance-K receptor (Homo sapiens, UniProt P21452); assay type: cell membranes, CHO, Membrane; settings: cho; further: in other assays of this panel Not Active means under 50% inhibition at 10 µM
T2 sequence (P21452 whole entry): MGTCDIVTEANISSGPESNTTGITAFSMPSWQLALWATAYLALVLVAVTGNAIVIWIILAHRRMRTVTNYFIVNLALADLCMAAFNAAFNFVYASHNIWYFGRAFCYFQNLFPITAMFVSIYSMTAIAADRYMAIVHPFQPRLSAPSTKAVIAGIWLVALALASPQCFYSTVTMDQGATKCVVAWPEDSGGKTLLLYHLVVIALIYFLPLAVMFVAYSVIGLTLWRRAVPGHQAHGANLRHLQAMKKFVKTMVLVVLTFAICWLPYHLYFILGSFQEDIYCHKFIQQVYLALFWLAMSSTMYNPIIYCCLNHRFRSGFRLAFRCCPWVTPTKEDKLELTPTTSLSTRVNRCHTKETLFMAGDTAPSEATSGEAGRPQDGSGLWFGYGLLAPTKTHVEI

SMILES	IC50
CCOC(=O)C1=C(C)NC(C)=C(C(=O)OC)C1c1cccc(Cl)c1Cl (centres undefined) [FELODIPINE]	Not Active
Cc1cn[nH]c1 [FOMEPIZOLE]	Not Active
Cc1cnc(C(=O)NCCc2ccc(S(=O)(=O)NC(=O)NC3CCCCC3)cc2)cn1 [GLIPIZIDE]	Not Active
C[C@]12CCC(=O)C=C1CC[C@@H]1[C@@H]2[C@@H](O)C[C@@]2(C)[C@H]1CC[C@]2(O)C(=O)CO [HYDROCORTISONE]	Not Active
C/C=C\c1ccc(O)c(OC)c1 [ISOEUGENOL]	Not Active
Cc1cccc(Nc2ccccc2C(=O)O)c1C [MEFENAMIC ACID]	Not Active
COc1ccc2cc(CCC(C)=O)ccc2c1 [NABUMETONE]	Not Active
O=C(O)c1cccnc1 [NIACIN]	Not Active
OCCN1CCN(CCCN2c3ccccc3Sc3ccc(Cl)cc32)CC1 [PERPHENAZINE]	Not Active

same assay, conditions: read-out: IC50

SMILES	IC50
CC[C@H](C)C(=O)O[C@H]1C[C@@H](C)C=C2C=C[C@H](C)[C@H](CC[C@@H]3C[C@@H](O)CC(=O)O3)[C@H]21 [LOVASTATIN]	28.2 µM

same assay, conditions: read-out: Ki

SMILES	Ki
CC[C@H](C)C(=O)O[C@H]1C[C@@H](C)C=C2C=C[C@H](C)[C@H](CC[C@@H]3C[C@@H](O)CC(=O)O3)[C@H]21 [LOVASTATIN]	9.41 µM

test system: not listed separately; test: DRUGMATRIX: Calcium Channel Type L, Dihydropyridine radioligand binding (ligand: [3H] Nitrendipine); assay type: cell membranes, Rattus norvegicus, Wistar, Cerebral cortex, Membrane; settings: Not Active = under 50% inhibition at 10 µM

SMILES	IC50	Ki
Cc1cn[nH]c1 [FOMEPIZOLE]	Not Active	Not Active
Cc1cnc(C(=O)NCCc2ccc(S(=O)(=O)NC(=O)NC3CCCCC3)cc2)cn1 [GLIPIZIDE]	Not Active	Not Active
C[C@]12CCC(=O)C=C1CC[C@@H]1[C@@H]2[C@@H](O)C[C@@]2(C)[C@H]1CC[C@]2(O)C(=O)CO [HYDROCORTISONE]	Not Active	Not Active
C/C=C\c1ccc(O)c(OC)c1 [ISOEUGENOL]	Not Active	Not Active
CC[C@H](C)C(=O)O[C@H]1C[C@@H](C)C=C2C=C[C@H](C)[C@H](CC[C@@H]3C[C@@H](O)CC(=O)O3)[C@H]21 [LOVASTATIN]	Not Active	Not Active
Cc1cccc(Nc2ccccc2C(=O)O)c1C [MEFENAMIC ACID]	Not Active	Not Active
COc1ccc2cc(CCC(C)=O)ccc2c1 [NABUMETONE]	Not Active	Not Active
O=C(O)c1cccnc1 [NIACIN]	Not Active	Not Active
OCCN1CCN(CCCN2c3ccccc3Sc3ccc(Cl)cc32)CC1 [PERPHENAZINE]	Not Active	Not Active

same assay, conditions: Not Active = under 50% inhibition at 10 µM; read-out: IC50

SMILES	IC50
CCOC(=O)C1=C(C)NC(C)=C(C(=O)OC)C1c1cccc(Cl)c1Cl (centres undefined) [FELODIPINE]	0.082 nM

same assay, conditions: Not Active = under 50% inhibition at 10 µM; read-out: Ki

SMILES	Ki
CCOC(=O)C1=C(C)NC(C)=C(C(=O)OC)C1c1cccc(Cl)c1Cl (centres undefined) [FELODIPINE]	0.053 nM

test system: not listed separately; test: DRUGMATRIX: Serotonin (5-Hydroxytryptamine) 5-HT3 radioligand binding (ligand: [3H] GR-65630); assay type: cell membranes, Membrane; settings: hek293; Not Active = under 50% inhibition at 10 µM

SMILES	IC50	Ki
CCOC(=O)C1=C(C)NC(C)=C(C(=O)OC)C1c1cccc(Cl)c1Cl (centres undefined) [FELODIPINE]	Not Active	Not Active
Cc1cn[nH]c1 [FOMEPIZOLE]	Not Active	Not Active
Cc1cnc(C(=O)NCCc2ccc(S(=O)(=O)NC(=O)NC3CCCCC3)cc2)cn1 [GLIPIZIDE]	Not Active	Not Active
C[C@]12CCC(=O)C=C1CC[C@@H]1[C@@H]2[C@@H](O)C[C@@]2(C)[C@H]1CC[C@]2(O)C(=O)CO [HYDROCORTISONE]	Not Active	Not Active
C/C=C\c1ccc(O)c(OC)c1 [ISOEUGENOL]	Not Active	Not Active
CC[C@H](C)C(=O)O[C@H]1C[C@@H](C)C=C2C=C[C@H](C)[C@H](CC[C@@H]3C[C@@H](O)CC(=O)O3)[C@H]21 [LOVASTATIN]	Not Active	Not Active
Cc1cccc(Nc2ccccc2C(=O)O)c1C [MEFENAMIC ACID]	Not Active	Not Active
COc1ccc2cc(CCC(C)=O)ccc2c1 [NABUMETONE]	Not Active	Not Active
O=C(O)c1cccnc1 [NIACIN]	Not Active	Not Active
OCCN1CCN(CCCN2c3ccccc3Sc3ccc(Cl)cc32)CC1 [PERPHENAZINE]	Not Active	Not Active

target: Nitric oxide synthase 1 (Rattus norvegicus, UniProt P29476); assay type: tissue-based, Cerebellum; settings: not given; further: in other assays of this panel Not Active means under 50% inhibition at 10 µM
Sequence (P29476 whole entry): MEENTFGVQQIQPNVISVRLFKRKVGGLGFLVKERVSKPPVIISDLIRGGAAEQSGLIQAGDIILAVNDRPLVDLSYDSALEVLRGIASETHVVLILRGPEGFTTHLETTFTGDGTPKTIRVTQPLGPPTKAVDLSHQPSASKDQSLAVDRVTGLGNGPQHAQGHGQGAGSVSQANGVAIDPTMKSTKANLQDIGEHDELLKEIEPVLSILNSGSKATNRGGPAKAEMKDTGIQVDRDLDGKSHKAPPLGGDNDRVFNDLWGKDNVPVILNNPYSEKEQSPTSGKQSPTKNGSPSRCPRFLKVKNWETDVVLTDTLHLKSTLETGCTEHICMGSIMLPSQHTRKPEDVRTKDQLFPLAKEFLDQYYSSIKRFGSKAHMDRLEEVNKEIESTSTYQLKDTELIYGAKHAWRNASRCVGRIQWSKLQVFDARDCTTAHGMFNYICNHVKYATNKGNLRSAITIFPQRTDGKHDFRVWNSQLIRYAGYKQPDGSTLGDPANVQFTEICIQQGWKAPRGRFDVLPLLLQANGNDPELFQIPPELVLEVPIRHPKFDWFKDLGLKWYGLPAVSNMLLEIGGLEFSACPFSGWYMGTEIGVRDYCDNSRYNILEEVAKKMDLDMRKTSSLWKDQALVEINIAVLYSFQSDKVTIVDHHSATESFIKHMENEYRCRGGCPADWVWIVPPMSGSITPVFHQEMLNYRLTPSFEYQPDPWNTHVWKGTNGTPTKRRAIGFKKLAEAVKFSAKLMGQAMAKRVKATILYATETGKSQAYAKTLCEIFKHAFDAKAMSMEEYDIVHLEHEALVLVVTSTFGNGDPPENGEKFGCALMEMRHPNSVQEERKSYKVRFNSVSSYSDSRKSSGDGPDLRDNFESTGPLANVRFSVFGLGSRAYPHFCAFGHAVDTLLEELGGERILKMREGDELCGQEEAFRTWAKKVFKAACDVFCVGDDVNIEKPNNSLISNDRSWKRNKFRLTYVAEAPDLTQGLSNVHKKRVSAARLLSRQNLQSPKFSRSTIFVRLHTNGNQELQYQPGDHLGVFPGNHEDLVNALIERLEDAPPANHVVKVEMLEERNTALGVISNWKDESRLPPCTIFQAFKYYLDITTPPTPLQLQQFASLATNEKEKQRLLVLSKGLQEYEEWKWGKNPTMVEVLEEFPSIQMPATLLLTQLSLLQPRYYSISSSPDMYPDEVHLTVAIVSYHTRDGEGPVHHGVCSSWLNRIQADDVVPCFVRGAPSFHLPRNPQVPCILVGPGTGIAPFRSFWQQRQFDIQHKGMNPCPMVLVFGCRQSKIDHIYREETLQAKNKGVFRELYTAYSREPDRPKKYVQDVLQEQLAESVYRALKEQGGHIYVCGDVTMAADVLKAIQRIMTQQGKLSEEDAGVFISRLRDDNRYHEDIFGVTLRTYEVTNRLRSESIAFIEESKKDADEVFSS

SMILES	IC50
CCOC(=O)C1=C(C)NC(C)=C(C(=O)OC)C1c1cccc(Cl)c1Cl (centres undefined) [FELODIPINE]	Not Active
Cc1cn[nH]c1 [FOMEPIZOLE]	Not Active
Cc1cnc(C(=O)NCCc2ccc(S(=O)(=O)NC(=O)NC3CCCCC3)cc2)cn1 [GLIPIZIDE]	Not Active
C[C@]12CCC(=O)C=C1CC[C@@H]1[C@@H]2[C@@H](O)C[C@@]2(C)[C@H]1CC[C@]2(O)C(=O)CO [HYDROCORTISONE]	Not Active
C/C=C\c1ccc(O)c(OC)c1 [ISOEUGENOL]	Not Active
CC[C@H](C)C(=O)O[C@H]1C[C@@H](C)C=C2C=C[C@H](C)[C@H](CC[C@@H]3C[C@@H](O)CC(=O)O3)[C@H]21 [LOVASTATIN]	Not Active
Cc1cccc(Nc2ccccc2C(=O)O)c1C [MEFENAMIC ACID]	Not Active
COc1ccc2cc(CCC(C)=O)ccc2c1 [NABUMETONE]	Not Active
O=C(O)c1cccnc1 [NIACIN]	Not Active
OCCN1CCN(CCCN2c3ccccc3Sc3ccc(Cl)cc32)CC1 [PERPHENAZINE]	Not Active

target: Mitogen-activated protein kinase 3 (Homo sapiens, UniProt P27361); test: DRUGMATRIX: Protein Serine/Threonine Kinase, ERK1 enzyme inhibition (substrate: Myelin Basic Protein); parameters: species or system Escherichia coli; settings: Not Active = under 50% inhibition at 10 µM
Sequence (P27361 whole entry): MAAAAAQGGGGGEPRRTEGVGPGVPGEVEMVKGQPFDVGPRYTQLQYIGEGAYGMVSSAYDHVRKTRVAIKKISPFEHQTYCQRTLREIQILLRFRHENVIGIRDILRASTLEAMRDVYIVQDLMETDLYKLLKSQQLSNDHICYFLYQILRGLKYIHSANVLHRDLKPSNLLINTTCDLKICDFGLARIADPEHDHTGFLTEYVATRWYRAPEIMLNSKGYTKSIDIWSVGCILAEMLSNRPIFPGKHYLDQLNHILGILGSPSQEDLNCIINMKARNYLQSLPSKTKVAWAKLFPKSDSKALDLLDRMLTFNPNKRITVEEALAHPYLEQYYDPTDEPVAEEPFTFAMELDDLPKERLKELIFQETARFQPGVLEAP

SMILES	IC50
CCOC(=O)C1=C(C)NC(C)=C(C(=O)OC)C1c1cccc(Cl)c1Cl (centres undefined) [FELODIPINE]	Not Active
Cc1cn[nH]c1 [FOMEPIZOLE]	Not Active
C[C@]12CCC(=O)C=C1CC[C@@H]1[C@@H]2[C@@H](O)C[C@@]2(C)[C@H]1CC[C@]2(O)C(=O)CO [HYDROCORTISONE]	Not Active
C/C=C\c1ccc(O)c(OC)c1 [ISOEUGENOL]	Not Active
CC[C@H](C)C(=O)O[C@H]1C[C@@H](C)C=C2C=C[C@H](C)[C@H](CC[C@@H]3C[C@@H](O)CC(=O)O3)[C@H]21 [LOVASTATIN]	Not Active
Cc1cccc(Nc2ccccc2C(=O)O)c1C [MEFENAMIC ACID]	Not Active
COc1ccc2cc(CCC(C)=O)ccc2c1 [NABUMETONE]	Not Active
O=C(O)c1cccnc1 [NIACIN]	Not Active
OCCN1CCN(CCCN2c3ccccc3Sc3ccc(Cl)cc32)CC1 [PERPHENAZINE]	Not Active

target: Cytochrome P450 2C19 (Homo sapiens, UniProt P33261); settings: bti-tn-5b1-4; further: in other assays of this panel Not Active means under 50% inhibition at 10 µM
Sequence (P33261 whole entry): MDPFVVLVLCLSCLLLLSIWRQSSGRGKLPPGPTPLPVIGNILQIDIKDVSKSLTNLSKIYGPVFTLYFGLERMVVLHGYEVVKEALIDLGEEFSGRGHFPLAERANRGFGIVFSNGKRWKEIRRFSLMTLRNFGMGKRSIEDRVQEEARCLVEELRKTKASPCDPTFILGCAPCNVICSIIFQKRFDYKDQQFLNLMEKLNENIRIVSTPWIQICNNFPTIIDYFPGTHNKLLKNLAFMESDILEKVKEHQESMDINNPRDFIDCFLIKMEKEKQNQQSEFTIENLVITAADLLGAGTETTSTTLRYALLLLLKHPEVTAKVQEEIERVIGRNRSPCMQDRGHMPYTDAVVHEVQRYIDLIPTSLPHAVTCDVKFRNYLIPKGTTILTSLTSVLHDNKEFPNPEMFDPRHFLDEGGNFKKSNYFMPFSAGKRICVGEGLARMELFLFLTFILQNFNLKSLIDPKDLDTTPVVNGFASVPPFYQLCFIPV

SMILES	IC50	Ki
C[C@]12CCC(=O)C=C1CC[C@@H]1[C@@H]2[C@@H](O)C[C@@]2(C)[C@H]1CC[C@]2(O)C(=O)CO [HYDROCORTISONE]	Not Active	Not Active
Cc1cccc(Nc2ccccc2C(=O)O)c1C [MEFENAMIC ACID]	Not Active	Not Active
COc1ccc2cc(CCC(C)=O)ccc2c1 [NABUMETONE]	Not Active	Not Active
O=C(O)c1cccnc1 [NIACIN]	Not Active	Not Active
